The values that follow come from ChEMBL document CHEMBL4033775, “Natural-Products-Inspired Use of the gem-Dimethyl Group in Medicinal Chemistry” (J Med Chem, 2018).

In test [1] the target is Prothrombin (Homo sapiens, UniProt P00734). Kind of test: Inhibition of human plasma thrombin using chromogenix AB as substrate after 30 secs by UV-spectrophotometry.
Test [2] addresses Prothrombin (Bos taurus, UniProt P00735). As to the kind of experiment: Inhibition of bovine plasma thrombin using chromogenix AB as substrate after 30 secs by UV-spectrophotometry.
Test [3] concerns Human immunodeficiency virus 1. As to the kind of experiment: Antiviral activity against HIV1. The format is functional.
In another test the test system is MCF7. Kind of test: Cytotoxicity against human MCF7 cells assessed as reduction in protein synthesis. The format is functional, cell-based.
The next test concerns HeLa. As to the kind of experiment: Cytotoxicity against human HeLa cells assessed as reduction in protein synthesis at 0.05 uM. The format is functional.
For a further test, the system named is 1A9. As to the kind of experiment: Cytotoxicity against human 1A9 cells. The format is functional, cell-based.
Another test has as its target Interstitial collagenase (Homo sapiens, UniProt P03956). As to the kind of experiment: Inhibition of human interstitial recombinant N-terminal MMP1 expressed in Escherichia coli BL21(DE3) using Mca-Pro-Leu-Gly-Leu-Dpa-Ala-Arg-NH2 as substrate after 20 to 30 mins by spectrofluorimetric analysis.
For the next test, the target named is T1, Matrilysin (Homo sapiens, UniProt P09237).
T1 sequence (P09237 whole entry): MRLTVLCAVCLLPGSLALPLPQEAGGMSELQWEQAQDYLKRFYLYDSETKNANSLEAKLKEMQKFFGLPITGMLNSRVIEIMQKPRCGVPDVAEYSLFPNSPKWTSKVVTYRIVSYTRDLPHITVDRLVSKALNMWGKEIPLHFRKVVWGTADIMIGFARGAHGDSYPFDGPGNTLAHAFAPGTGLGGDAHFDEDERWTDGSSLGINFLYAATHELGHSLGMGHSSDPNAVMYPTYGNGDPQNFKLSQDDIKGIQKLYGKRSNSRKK
As to the kind of experiment: Inhibition of MMP7 (unknown origin) expressed in Escherichia coli BL21(DE3) using Mca-Pro-Leu-Gly-Leu-Dpa-Ala-Arg-NH2 as substrate after 20 to 30 mins by spectrofluorimetric analysis.

The target in a further test is Collagenase 3 (Homo sapiens, UniProt P45452). Kind of test: Inhibition of MMP13 (unknown origin) expressed in Escherichia coli BL21(DE3) using Mca-Pro-Leu-Gly-Leu-Dpa-Ala-Arg-NH2 as substrate after 20 to 30 mins by spectrofluorimetric analysis.
The nature of test [4]: Inhibition of bacterial DNA gyrase subunit B. Further details: species or system Bacteria.
Test [5] deals with Retinoic acid receptor RXR-beta (Homo sapiens, UniProt P28702). As to the kind of experiment: Agonist activity at RXRbeta (unknown origin).
Test [6] addresses Retinoic acid receptor RXR-gamma (Homo sapiens, UniProt P48443). As to the kind of experiment: Agonist activity at RXRgamma (unknown origin).
Test [7] addresses Retinoic acid receptor alpha (Homo sapiens, UniProt P10276). As to the kind of experiment: Agonist activity at RARaplha (unknown origin).
For test [8], the target named is Retinoic acid receptor beta (Homo sapiens, UniProt P10826). As to the kind of experiment: Agonist activity at RARbeta (unknown origin).
In test [9] the target is Retinoic acid receptor gamma (Homo sapiens, UniProt P13631). As to the kind of experiment: Agonist activity at RARgamma (unknown origin).
The species named for another test is Homo sapiens. As to the kind of experiment: Antagonist activity at nAChR (unknown origin) relative to (+/-)-mecamylamine.
The next test addresses D(2) dopamine receptor (Homo sapiens, UniProt P14416). Kind of test: Displacement of [3H]methylspiperone from human D2 receptor expressed in HEK cells. The format is cell-based.
The target in test [10] is 5-hydroxytryptamine receptor 2A (Homo sapiens, UniProt P28223).
In test [11] the test system is Rattus norvegicus. As to the kind of experiment: Anti-hypertensive activity in conscious spontaneously hypertensive Okamoto rat assessed as reduction in systolic blood pressure at 10 mg/kg, po measured up to 6 hrs post dose relative to control. The format is functional. Further details: scale not given: the % may be the effect or the level left.
The test system of test [12] is Rattus norvegicus. As to the kind of experiment: Anti-hypertensive activity in conscious spontaneously hypertensive Okamoto rat assessed as reduction in systolic blood pressure at 3 mg/kg, po measured up to 6 hrs post dose relative to control. The format is functional. Further details: scale not given: the % may be the effect or the level left.
The test system of test [13] is Rattus norvegicus. As to the kind of experiment: Anti-hypertensive activity in conscious spontaneously hypertensive Okamoto rat assessed as reduction in systolic blood pressure at 0.3 mg/kg, po measured up to 6 hrs post dose relative to control. The format is functional. More on the design: scale not given: the % may be the effect or the level left.
Test [14] has as its system Rattus norvegicus. As to the kind of experiment: Anti-hypertensive activity in conscious spontaneously hypertensive Okamoto rat assessed as reduction in systolic blood pressure at 1 mg/kg, po measured up to 6 hrs post dose relative to control. The format is functional. Further details: scale not given: the % may be the effect or the level left.
For test [15], the system named is Rattus norvegicus. As to the kind of experiment: Anti-hypertensive activity in conscious spontaneously hypertensive Okamoto rat assessed as reduction in systolic blood pressure at 0.1 mg/kg, po measured up to 6 hrs post dose relative to control. The format is functional. More on the design: scale not given: the % may be the effect or the level left.
For another test, the system named is Clostridioides difficile. Kind of test: Antibacterial activity against Clostridium difficile. The format is functional.
Test [16] has as its target 5-hydroxytryptamine receptor 2C (Homo sapiens, UniProt P28335). Kind of test: Agonist activity at human 5-HT2C receptor expressed in mouse NIH/3T3 cells assessed as induction of IP3 formation after 0.5 hrs. The format is functional, cell-based.
In test [17] the test system is Trypanosoma brucei brucei. Kind of test: Antitrypanosomal activity against Trypanosoma brucei brucei after 72 hrs by resazurin-based fluorescence assay. The format is functional.

Each structure is given as a SMILES string. Values after ≈ are worked out from the molar mass of the structure shown.

Chain of Retinoic acid receptor alpha (P10276 whole entry): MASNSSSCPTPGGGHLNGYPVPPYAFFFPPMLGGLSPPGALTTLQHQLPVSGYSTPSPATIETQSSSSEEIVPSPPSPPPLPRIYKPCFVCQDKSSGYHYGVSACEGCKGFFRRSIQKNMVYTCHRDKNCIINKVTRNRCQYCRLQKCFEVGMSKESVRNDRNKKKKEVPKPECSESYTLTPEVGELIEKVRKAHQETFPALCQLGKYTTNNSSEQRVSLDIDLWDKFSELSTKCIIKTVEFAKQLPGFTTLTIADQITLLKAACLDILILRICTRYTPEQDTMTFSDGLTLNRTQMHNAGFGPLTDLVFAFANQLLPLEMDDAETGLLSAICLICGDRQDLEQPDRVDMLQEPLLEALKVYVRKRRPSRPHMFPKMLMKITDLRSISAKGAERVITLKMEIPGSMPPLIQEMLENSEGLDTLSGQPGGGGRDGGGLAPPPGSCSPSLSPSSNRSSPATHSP
Chain of Interstitial collagenase (P03956 whole entry): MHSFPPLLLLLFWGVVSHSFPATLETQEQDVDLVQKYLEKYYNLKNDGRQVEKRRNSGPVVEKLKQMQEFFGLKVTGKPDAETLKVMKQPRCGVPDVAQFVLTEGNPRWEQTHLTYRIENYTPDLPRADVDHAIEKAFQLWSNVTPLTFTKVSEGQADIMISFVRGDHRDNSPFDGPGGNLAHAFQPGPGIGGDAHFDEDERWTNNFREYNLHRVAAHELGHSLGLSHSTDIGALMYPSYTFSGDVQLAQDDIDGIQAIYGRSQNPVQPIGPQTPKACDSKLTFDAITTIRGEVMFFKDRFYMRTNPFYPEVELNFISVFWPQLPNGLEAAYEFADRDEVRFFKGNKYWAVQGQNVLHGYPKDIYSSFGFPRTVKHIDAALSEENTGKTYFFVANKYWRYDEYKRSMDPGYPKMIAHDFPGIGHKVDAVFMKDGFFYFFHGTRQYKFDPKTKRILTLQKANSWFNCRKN
Chain of Retinoic acid receptor beta (P10826 whole entry): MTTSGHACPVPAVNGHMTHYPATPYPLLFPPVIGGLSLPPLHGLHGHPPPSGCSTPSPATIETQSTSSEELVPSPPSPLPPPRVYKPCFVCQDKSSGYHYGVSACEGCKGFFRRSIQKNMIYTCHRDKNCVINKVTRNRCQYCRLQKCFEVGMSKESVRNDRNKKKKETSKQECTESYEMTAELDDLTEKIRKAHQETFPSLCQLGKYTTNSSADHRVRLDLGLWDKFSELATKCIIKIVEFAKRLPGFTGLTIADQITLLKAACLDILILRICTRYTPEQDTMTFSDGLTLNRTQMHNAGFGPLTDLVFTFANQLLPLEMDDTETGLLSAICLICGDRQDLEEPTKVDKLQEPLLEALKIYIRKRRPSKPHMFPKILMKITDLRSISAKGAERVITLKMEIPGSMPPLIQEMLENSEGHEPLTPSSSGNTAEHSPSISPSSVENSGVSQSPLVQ
Chain of 5-hydroxytryptamine receptor 2A (P28223 whole entry): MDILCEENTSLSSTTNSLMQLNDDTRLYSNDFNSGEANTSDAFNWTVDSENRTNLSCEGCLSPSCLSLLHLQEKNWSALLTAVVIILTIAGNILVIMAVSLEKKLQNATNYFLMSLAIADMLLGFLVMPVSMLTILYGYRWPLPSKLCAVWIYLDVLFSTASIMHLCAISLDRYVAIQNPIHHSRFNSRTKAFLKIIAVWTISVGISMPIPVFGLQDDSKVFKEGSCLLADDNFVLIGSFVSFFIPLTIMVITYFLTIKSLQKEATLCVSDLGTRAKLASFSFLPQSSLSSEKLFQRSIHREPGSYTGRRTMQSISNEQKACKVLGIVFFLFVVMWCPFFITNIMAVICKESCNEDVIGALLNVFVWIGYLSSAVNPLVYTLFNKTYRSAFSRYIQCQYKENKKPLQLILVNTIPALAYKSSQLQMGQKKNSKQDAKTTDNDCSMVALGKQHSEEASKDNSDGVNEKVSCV
Chain of D(2) dopamine receptor (P14416 whole entry): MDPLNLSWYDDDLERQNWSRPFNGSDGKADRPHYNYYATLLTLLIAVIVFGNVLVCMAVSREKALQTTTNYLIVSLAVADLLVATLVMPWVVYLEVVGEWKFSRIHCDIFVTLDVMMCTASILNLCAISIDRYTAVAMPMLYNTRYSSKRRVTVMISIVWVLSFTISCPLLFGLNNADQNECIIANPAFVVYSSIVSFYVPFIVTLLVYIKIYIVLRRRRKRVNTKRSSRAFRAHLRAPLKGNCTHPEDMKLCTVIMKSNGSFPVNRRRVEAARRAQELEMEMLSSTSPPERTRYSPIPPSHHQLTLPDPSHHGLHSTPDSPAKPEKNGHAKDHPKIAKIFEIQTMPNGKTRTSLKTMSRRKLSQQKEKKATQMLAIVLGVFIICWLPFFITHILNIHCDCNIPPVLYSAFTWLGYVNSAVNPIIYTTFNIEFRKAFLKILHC
Chain of Retinoic acid receptor RXR-gamma (P48443 whole entry): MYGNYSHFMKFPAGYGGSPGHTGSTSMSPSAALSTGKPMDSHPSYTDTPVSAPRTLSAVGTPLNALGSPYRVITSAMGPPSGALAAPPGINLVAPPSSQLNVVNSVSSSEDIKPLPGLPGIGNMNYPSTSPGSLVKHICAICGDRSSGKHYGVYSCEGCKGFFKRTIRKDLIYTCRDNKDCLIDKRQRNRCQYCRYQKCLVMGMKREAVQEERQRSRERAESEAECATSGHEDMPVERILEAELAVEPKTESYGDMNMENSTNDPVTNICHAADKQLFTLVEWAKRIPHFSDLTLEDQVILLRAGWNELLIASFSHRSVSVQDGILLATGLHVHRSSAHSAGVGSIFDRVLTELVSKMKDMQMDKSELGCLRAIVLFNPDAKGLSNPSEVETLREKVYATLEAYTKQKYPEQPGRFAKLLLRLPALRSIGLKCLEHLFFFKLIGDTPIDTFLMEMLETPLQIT
Chain of Retinoic acid receptor gamma (P13631 whole entry): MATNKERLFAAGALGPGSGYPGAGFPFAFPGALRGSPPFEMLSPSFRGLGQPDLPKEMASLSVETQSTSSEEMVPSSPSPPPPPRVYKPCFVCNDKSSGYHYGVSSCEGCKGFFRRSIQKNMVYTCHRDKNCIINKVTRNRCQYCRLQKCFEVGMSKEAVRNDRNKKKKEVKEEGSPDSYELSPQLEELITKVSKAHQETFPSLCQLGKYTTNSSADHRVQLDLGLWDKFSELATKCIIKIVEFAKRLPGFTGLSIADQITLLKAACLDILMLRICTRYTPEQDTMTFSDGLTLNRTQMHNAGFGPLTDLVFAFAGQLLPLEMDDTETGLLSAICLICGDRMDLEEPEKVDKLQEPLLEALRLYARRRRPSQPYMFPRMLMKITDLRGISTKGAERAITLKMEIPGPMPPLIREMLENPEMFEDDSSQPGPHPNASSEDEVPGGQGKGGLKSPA
Chain of Retinoic acid receptor RXR-beta (P28702 whole entry): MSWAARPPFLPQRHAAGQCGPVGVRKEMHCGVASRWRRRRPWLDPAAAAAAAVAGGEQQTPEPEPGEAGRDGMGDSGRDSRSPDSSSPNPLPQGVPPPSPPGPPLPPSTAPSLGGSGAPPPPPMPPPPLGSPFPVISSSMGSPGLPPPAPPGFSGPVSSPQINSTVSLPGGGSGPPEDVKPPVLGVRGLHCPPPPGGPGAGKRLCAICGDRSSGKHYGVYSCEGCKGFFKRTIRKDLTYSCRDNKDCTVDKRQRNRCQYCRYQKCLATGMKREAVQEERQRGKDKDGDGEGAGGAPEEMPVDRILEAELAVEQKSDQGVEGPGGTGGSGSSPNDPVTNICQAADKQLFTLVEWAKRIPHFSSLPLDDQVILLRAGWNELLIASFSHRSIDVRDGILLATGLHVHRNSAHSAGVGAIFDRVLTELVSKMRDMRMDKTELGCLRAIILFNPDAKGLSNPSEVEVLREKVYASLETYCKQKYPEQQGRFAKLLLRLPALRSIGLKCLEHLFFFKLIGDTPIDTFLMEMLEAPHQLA
Chain of 5-hydroxytryptamine receptor 2C (P28335 whole entry): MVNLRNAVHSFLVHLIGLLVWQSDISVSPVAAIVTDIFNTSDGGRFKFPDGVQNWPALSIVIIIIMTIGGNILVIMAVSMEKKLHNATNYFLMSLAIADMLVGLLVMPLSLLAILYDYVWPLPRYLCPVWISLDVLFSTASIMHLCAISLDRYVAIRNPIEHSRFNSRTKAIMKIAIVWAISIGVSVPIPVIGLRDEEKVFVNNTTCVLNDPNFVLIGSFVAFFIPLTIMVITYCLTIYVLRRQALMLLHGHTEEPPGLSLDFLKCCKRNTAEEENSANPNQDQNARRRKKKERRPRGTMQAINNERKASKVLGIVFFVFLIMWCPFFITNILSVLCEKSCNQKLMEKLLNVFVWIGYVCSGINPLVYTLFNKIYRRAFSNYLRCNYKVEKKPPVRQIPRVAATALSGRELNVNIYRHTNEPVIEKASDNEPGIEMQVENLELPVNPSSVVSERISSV

With `CC1CNc2c(cccc2S(=O)(=O)N[C@@H](CCCNC(=N)N)C(=O)N2CCC(CCO)CC2)C1` (mixture of isomers), the figures for the inhibition constant Ki on Prothrombin [1] and on Prothrombin [2] were 40 nM and 50 nM, respectively.
Take `C=C(C)[C@@H]1CC[C@]2(C(=O)O)CC[C@]3(C)[C@H](CC[C@@H]4[C@@]5(C)CC[C@H](O)C(C)(C)[C@@H]5CC[C@]43C)[C@@H]12` [BETULINIC ACID]: the EC50 in [3] is 1400 nM.
Turning to `COC(=O)C[C@](O)(CCCC(C)(C)O)C(=O)O[C@@H]1C(OC)=C[C@]23CCCN2CCc2cc4c(cc2[C@H]13)OCO4` [OMACETAXINE MEPESUCCINATE], in the test on MCF7, the IC50 was 0.87 nM. Besides, in the test with HeLa, the inhibition at 0.05 µM amounted to 50%.
In turn, `C/C(=C\c1csc(C)n1)[C@@H]1C[C@@H]2O[C@]2(C)CCC[C@H](C)[C@H](O)[C@@H](C)C(=O)C(C)(C)[C@@H](O)CC(=O)N1` [IXABEPILONE] gave an IC50 with 1A9 of 6.65 nM.
With `COc1ccc(S(=O)(=O)N2CCCSC[C@@H]2C(=O)NO)cc1`, the IC50 on Interstitial collagenase was determined as 64 nM; against Matrilysin, 1100 nM; against Collagenase 3, 1.9 nM.
`CO[C@@H]1[C@@H](OC(=O)c2ccc(C)[nH]2)[C@@H](O)[C@H](Oc2ccc3c(O)c(NC(=O)c4ccc(O)c(CC=C(C)C)c4)c(=O)oc3c2Cl)OC1(C)C` [CHLOROBIOCIN]: in [4], half-maximal inhibition (IC50) was put at 30 nM.
`C=C(c1ccc(C(=O)O)cc1)c1cc2c(cc1C)CCCC2(C)C`: the EC50 in [5] was 2400 nM; in test [6], 2600 nM; in test [7], greater than 10000 nM; in test [8] it was greater than 10000 nM; in test [9], greater than 10000 nM.
For `CN[C@]1(C)[C@H]2CC[C@@H](C2)C1(C)C`, the fold change (FC) in the test listed under Homo sapiens is 1.4.
As to `COc1ccc(S(=O)(=O)N2CCSCC2C(=O)NO)cc1` (configuration not stated), the midpoint of inhibition against Matrilysin, the IC50, lay at 2030 nM.
In the case of `CC1(C)CC(=O)N(CCCCN2CCN(c3ncccn3)CC2)C(=O)C1` [GEPIRONE], the Ki on D(2) dopamine receptor stood at 4320 nM; in test [10] it was 3630 nM.
Regarding `CC1Oc2ccc([N+](=O)[O-])cc2[C@@H](N2CCCC2=O)[C@@H]1O` (some centres not stated), in the test with Rattus norvegicus [11], the Activity came out at 34%.
Consider `CC1(C)Oc2ccc(C#N)cc2C(N2CCCC2=O)C1O` (single isomer, unassigned; (+)) [CROMAKALIM], for which the Activity in the test on Rattus norvegicus [12] is given as 14%.
Consider `CNC1C[C@H]2CC[C@H]1C2` (mixture of isomers), for which the fold change (FC) in the test filed under Homo sapiens was greater than 40.
Turning to `CC1(C)Oc2ccc(C#N)cc2C(N2CCCC2=O)C1O` (racemic) [CROMAKALIM], the values for the Activity with Rattus norvegicus [13], in the test on Rattus norvegicus [14] and in the test on Rattus norvegicus [15] were 39%, 47% and 13%, respectively.
Turning to `CCc1c(Cl)c(O)c(Cl)c(O)c1C(=O)O[C@H]1[C@H](O)[C@H](OC)[C@H](OC/C2=C\C=C\C[C@H](O)/C(C)=C/[C@H](CC)[C@@H](O[C@@H]3OC(C)(C)[C@@H](OC(=O)C(C)C)[C@H](O)[C@@H]3O)/C(C)=C/C(C)=C/C[C@H]([C@@H](C)O)OC2=O)O[C@@H]1C`, the MIC90 against Clostridioides difficile is 0.125 to 0.25 µg/mL (≈ 0.118 to 0.236 µM).
`CC1(C)Oc2ccc([N+](=O)[O-])cc2[C@@H](N2CCCC2=O)[C@@H]1O`: the results for the Activity in the test with Rattus norvegicus [13] and with Rattus norvegicus [14] were 27% and 63%, respectively.
On to `COc1ccc2c(c1)-c1c(cnn1C[C@H](C)N)C2(C)C`, for which, in [16], the Ki was 2.51 nM.
In [17], `CC1(C)OB(O)c2cc(NC(=O)c3ccc(F)cc3C(F)(F)F)ccc21` [ACOZIBOROLE] yielded a 50% inhibitory concentration (IC50) of 556 nM.
Turning to `CC1(C)Oc2ccc(C#N)cc2C(N2CCCC2=O)C1O` (stereo in doubt; 110) [CROMAKALIM], the figures for the Activity with Rattus norvegicus [13] and in the test with Rattus norvegicus [15] were 47% and 31%, respectively.

The term Ki denotes a dissociation constant, usually derived from enzyme kinetics or from competition with a known ligand. Broadly, the EC50 is the concentration that produces a half-maximal response. Broadly, the IC50 is the concentration that inhibits the measured activity by half. The term inhibition denotes the change of the read-out against control, counted positive when it falls. As a reminder, the MIC90 is an inhibitory concentration at the 90% level, which refers to growth in some studies and to a panel of isolates in others.
